Consider 38 compounds from patent US20240400553A1, “AMINE BASED MATRIPTASE 2 INHIBITORS AND USES THEREOF” (Disc Medicine, Inc., priority 2023, published 2024).

pKi: −log10 of the molar value.

One assay concerns the target T1, Human Recombinant Matriptase 2 (Homo sapiens, UniProt Q8IU80).
T1 construct: made in house
T1 sequence (Q8IU80 1-811): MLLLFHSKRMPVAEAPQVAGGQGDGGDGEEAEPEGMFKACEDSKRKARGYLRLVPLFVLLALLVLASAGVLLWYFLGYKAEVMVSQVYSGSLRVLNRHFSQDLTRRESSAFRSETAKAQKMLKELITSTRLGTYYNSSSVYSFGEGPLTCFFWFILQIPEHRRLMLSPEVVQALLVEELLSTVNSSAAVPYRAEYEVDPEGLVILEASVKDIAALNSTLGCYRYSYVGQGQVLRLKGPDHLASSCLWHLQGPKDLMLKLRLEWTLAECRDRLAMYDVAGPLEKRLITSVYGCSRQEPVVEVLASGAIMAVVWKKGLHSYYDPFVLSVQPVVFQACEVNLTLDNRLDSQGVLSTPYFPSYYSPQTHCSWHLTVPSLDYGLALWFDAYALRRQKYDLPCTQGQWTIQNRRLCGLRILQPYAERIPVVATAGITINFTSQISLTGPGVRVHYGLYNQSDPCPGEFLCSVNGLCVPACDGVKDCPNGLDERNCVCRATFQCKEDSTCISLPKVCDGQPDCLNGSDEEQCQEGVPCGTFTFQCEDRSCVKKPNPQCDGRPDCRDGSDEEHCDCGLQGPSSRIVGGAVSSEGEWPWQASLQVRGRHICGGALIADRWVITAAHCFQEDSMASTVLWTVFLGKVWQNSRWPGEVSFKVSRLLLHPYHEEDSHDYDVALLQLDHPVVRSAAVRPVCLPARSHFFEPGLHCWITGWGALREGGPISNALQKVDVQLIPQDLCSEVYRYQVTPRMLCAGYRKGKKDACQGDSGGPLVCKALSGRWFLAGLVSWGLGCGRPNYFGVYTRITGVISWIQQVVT
The assay is described as follows: Matriptase 2 inhibition, fluorescence based assay (Method I). To be noted: Table A; Ki of Matriptase-2, class symbols; read-out: Mat-2 Ki. The format is biochemical. Put shortly: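 Fluorogenic readout (Ex 360/Em 480 nm) taken 60 min after adding 62 μM Boc-Gln-Ala-Arg-AMC, following 30-min enzyme–compound preincubation at 25 °C. Conditions: 3.5 nM in-house enzyme, pH 7.5 Tris/NaCl/gelatin buffer, 1% DMSO; percent inhibition versus concentration fitted by variable-slope sigmoidal regression.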
Usually pKi stands for the negative decadic logarithm of the Ki, by convention in mol/L. `CN1CCCC1COC(=O)Nc1cc(Cn2c(C(=O)O)cc3ccc(CN)cc32)c2ccccc2c1` (racemic) [Compound 398, 6-(aminomethyl)-1-{[3-({[(1-methylpyrrolidin-2-yl)methoxy]carbon-yl}amino]naphthalen-1-yl]methyl}-1H-indole-2-carboxylic acid]: the pKi is 5.52 to 6.30.

The assay is the same for the next values; noted with them: Table A; Ki of Matriptase-2; read-out: Mat-2 Ki.
Turning to `NCc1ccc2cc(C(=O)O)n(Cc3cc(NS(=O)(=O)CC[C@@H]4CCCN4)cc4ccccc34)c2n1` [Compound 1, (S)-6-(aminomethyl)-1-((3-((2-(pyrrolidin-2-yl)ethyl)sulfonamido)naphthalen-1-yl)methyl)-1H-pyrrolo[2,3-b]pyridine-2-carboxylic acid], the negative logarithm of the Ki (pKi) is not below 7.00.

Still in this assay, the particulars now being: Table A; Ki of Matriptase-2 given as class symbols; read-out: Mat-2 Ki.
With `CC[C@H]1CCCCN1C(=O)Nc1cc(Cn2c(C(=O)O)cc3ccc(CN)nc32)c2ccccc2c1` (racemic) [Compound 306, rac-6-(aminomethyl)-1-[(3-{[(2R)-2-ethylpiper-idine-1-carbonyl]amino}-naphthalen-1-yl)methyl]-1H-pyrrolo[2,3-b]pyr-idine-2-carboxylic acid], the negative-log Ki (pKi) was 5.52 to 6.30.

Regarding `CN1CCC[C@@H]1COC(=O)Nc1cc(Cn2c(C(=O)O)cc3ccc(CN)nc32)c2ccccc2c1` (racemic) [Compound 335, 6-(aminomethyl)-1-{[3-({[(1-methylpyrrolidin-2-yl)methoxy]carbon-yl}amino)naphthalen-1-yl]methyl}-1H-pyrrolo-[2,3-b]pyridine-2-car-boxylic acid], the negative logarithm of the Ki (pKi) is 6.30 to 7.00.

Consider `CN1CCO[C@@H](COC(=O)Nc2cc(Cn3c(C(=O)O)cc4ccc(CN)nc43)c3ccccc3c2)C1` (racemic) [Compound 337, 6-(aminomethyl)-1-{[3-({[(4-methylmorpholin-2-yl)methoxy]carbon-yl}amino)naphthalen-1-yl]methyl}-1H-pyrrolo-[2,3-b]pyridine-2-car-boxylic acid], for which the negative-log Ki (pKi) is 6.30 to 7.00.

Turning to `C[C@@H](CN1CCCCC1)OC(=O)Nc1cc(Cn2c(C(=O)O)cc3ccc(CN)nc32)c2ccccc2c1` (racemic) [Compound 339, rac-6-(aminomethyl)-1-({3-[({[(2R)-1-(piperidin-1-yl)propan-2-yl]oxy}-carbonyl)amino]naph-thalen-1-yl}methyl)-1H-pyrrolo[2,3-b]pyridine-2-carboxylic acid], the negative logarithm of the Ki (pKi) was 5.52 to 6.30.

Consider `NCc1ccc2cc(C(=O)O)n(Cc3cc(NC(=O)OC[C@H]4CCN4Cc4ccccc4)cc4ccccc34)c2n1` (racemic) [Compound 340, rac-6-(aminomethyl)-1-({3-[({[(2R)-1-benzyl-azetidin-2-yl]methoxy}-carbonyl)amino]naph-thalen-1-yl}methyl)-1H-pyrrolo[2,3-b]pyridine-2-carboxylic acid], for which the negative logarithm of the Ki (pKi) was 5.52 to 6.30.

With `CN1CCC(COC(=O)c2cc3ccc(CN)nc3n2Cc2cc(N[S@@+]([O-])Cc3ccccc3)cc3ccccc23)CC1` (racemic) [Compound 367], the pKi was 5.52 to 6.30.

Regarding `CC(c1ccccc1)S(=O)(=O)Nc1cc(Cn2c(C(=O)OCC3CCN(C)CC3)cc3ccc(CN)cc32)c2ccccc2c1` (racemic) [Compound 380, (1-methylpiperidin-4-yl)-methyl 6-(aminomethyl)-1-{[3-(1-phenylethane-sulfonamido)naphthalen-1-yl]methyl}-1H-indole-2-carboxylate], the negative-log Ki (pKi) was not below 7.00.

Consider `CN1CCCC(COC(=O)c2cc3ccc(CN)cc3n2Cc2cc(NS(=O)(=O)Cc3ccccc3)cc3ccccc23)C1` (racemic) [Compound 382, (1-methylpiperidin-3-yl)-methyl 6-(aminomethyl)-1-{[3-(phenylmethane-sulfonamido)naphthalen-1-yl]methyl}-1H-indole-2-carboxylate], for which the negative logarithm of the Ki (pKi) was not below 7.00.

Turning to `NCc1ccc2cc(C(=O)O)n(Cc3cc(NS(=O)(=O)C[C@H]4CNCCO4)cc4ccccc34)c2c1` (racemic) [Compound 391, 6-(aminomethyl)-1-({3-[(morpholin-2-l)methane-sulfonamido]naphthalen-1-yl}methyl)-1H-indole-2-carboxylic acid], the pKi is 6.30 to 7.00.

The assay is the same for the next values; noted with them: Table B; Human Recombinant Matriptase 2, 3.5 nM enzyme, 62 μM substrate, 30 mins preincubation; read-out: Mean Ki.
Consider `CN1CCC(CCOC(=O)c2cc3ccc(CN)nc3n2Cc2cc(NS(=O)(=O)Cc3ccccc3)cc3c2CCCC3)CC1=O` (centres unmarked) [Compound 2.1], for which the pKi is 6.30 to 7.00.

Turning to `CN1CCC(CCOC(=O)c2cc3ccc(CN)nc3n2Cc2cc(NS(=O)(=O)Cc3ccsc3)cc3c2CCCC3)CC1=O` (centres unmarked) [Compound 2.2], the pKi was 6.30 to 7.00.

For the compound `CN1CCC(CCOC(=O)c2cc3ccc(CN)nc3n2Cc2cc(NS(=O)(=O)Cc3ccccc3)cc3ccccc23)CC1=O` (centres unmarked) [Compound 2.3], the pKi was not below 7.00.

As to `CN1CCC(CCOC(=O)c2cc3ccc(CN)nc3n2Cc2cc(NS(=O)(=O)Cc3ccsc3)cc3ccccc23)CC1=O` (centres unmarked) [Compound 2.4], the negative-log Ki (pKi) is not below 7.00.

Take `CN1CC(CCOC(=O)c2cc3ccc(CN)nc3n2Cc2cc(NS(=O)(=O)Cc3ccsc3)cc3ccccc23)CC1=O` (centres unmarked) [Compound 2.6]: the pKi was not below 7.00.

Turning to `CN1CC(CCOC(=O)c2cc3ccc(CN)nc3n2Cc2cc(NS(=O)(=O)Cc3ccccc3)cc3ccccc23)CC1=O` (centres unmarked) [Compound 2.7], the pKi is not below 7.00.

With `CN(C)C(=O)CCCOC(=O)c1cc2ccc(CN)nc2n1Cc1cc(CS(=O)(=O)Cc2ccsc2)cc2ccccc12` [Compound 2.10], the pKi is not below 7.00.

For `NCc1ccc2cc(C(=O)OCC3CCNC(=O)C3)n(Cc3cc(NS(=O)(=O)Cc4ccsc4)cc4c3CCCC4)c2n1` (centres unmarked) [Compound 2.11], the negative logarithm of the Ki (pKi) was not below 7.00.

As for `CN1CCC(CCOC(=O)c2cc3ccc(CN)nc3n2Cc2cc(NS(=O)(=O)Cc3ccccc3)c3ccccc3c2)CC1` [Compound 2.12], the negative logarithm of the Ki (pKi) is 6.30 to 7.00.

`NCc1ccc2cc(C(=O)OCC3CNC(=O)C3)n(Cc3cc(NS(=O)(=O)Cc4ccsc4)cc4ccccc34)c2n1` (centres unmarked) [Compound 2.13]: the negative-log Ki (pKi) is not below 7.00.

In the case of `CN1CCC(CCOC(=O)c2cc3ccc(CN)nc3n2Cc2cc(NS(=O)(=O)Cc3ccccc3)cc3c2CCCC3)CC1` [Compound 2.15], the pKi was not below 7.00.

Consider `CN1CCC(COC(=O)c2cc3ccc(CN)nc3n2Cc2cc(NS(=O)(=O)Cc3ccccc3)c3ccccc3c2)CC1` [Compound 2.16], for which the pKi is 6.30 to 7.00.

In the case of `CN1CCC(COC(=O)c2cc3ccc(CN)nc3n2Cc2cc(NS(=O)(=O)Cc3ccsc3)cc3ccccc23)CCC1=O` (centres unmarked) [Compound 2.17], the pKi was not below 7.00.

For the compound `CN1CCC(COC(=O)c2cc3ccc(CN)nc3n2Cc2cc(NS(=O)(=O)Cc3ccccc3)cc3ccccc23)CCC1=O` (centres unmarked) [Compound 2.18], the negative logarithm of the Ki (pKi) is not below 7.00.

As to `CN1CCC(COC(=O)c2cc3ccc(CN)nc3n2Cc2cc(NS(=O)(=O)Cc3ccccc3)cc3c2CCCC3)CC1=O` (centres unmarked) [Compound 2.19], the pKi was not below 7.00.

Consider `CN1CC(COC(=O)c2cc3ccc(CN)nc3n2Cc2cc(NS(=O)(=O)Cc3ccsc3)cc3ccccc23)CC1=O` (centres unmarked) [Compound 2.20], for which the negative logarithm of the Ki (pKi) was not below 7.00.

With `CN1CC(COC(=O)c2cc3ccc(CN)nc3n2Cc2cc(NS(=O)(=O)Cc3ccccc3)cc3ccccc23)CC1=O` (centres unmarked) [Compound 2.21], the pKi is not below 7.00.

For the compound `CN1CCC(COC(=O)c2cc3ccc(CN)nc3n2Cc2cc(NS(=O)(=O)Cc3ccsc3)cc3c2CCCC3)CC1=O` (centres unmarked) [Compound 2.22], the negative logarithm of the Ki (pKi) was not below 7.00.

`CN1CCC(CCCOC(=O)c2cc3ccc(CN)nc3n2Cc2cc(NS(=O)(=O)Cc3ccccc3)cc3ccccc23)CC1` [Compound 2.23]: the pKi was not below 7.00.

Take `NCc1ccc2cc(C(=O)NCc3ccc(N)cc3)n(Cc3cc(NS(=O)(=O)Cc4ccccc4)cc4ccccc34)c2n1` [Compound 2.24]: the pKi was not below 7.00.

Turning to `CB1C=Cc2c(Cn3c(C(=O)OCC4CCN(C)CC4)cc4ccc(CN)nc43)cc(NS(=O)(=O)Cc3ccccc3)cc2N1` [Compound 2.25], the pKi was not below 7.00.

For `CN1CCC(COC(=O)c2cc3ccc(CN)nc3n2Cc2cccn3nccc23)CC1` [Compound 2.26], the negative logarithm of the Ki (pKi) is less than 5.52.

As for `CN(C)c1ccc(COC(=O)c2cc3ccc(CN)nc3n2Cc2cc(NS(=O)(=O)Cc3ccccc3)cc3ccccc23)cc1` [Compound 2.27], the pKi is 6.30 to 7.00.

Consider `CN1CCC(COC(=O)c2cc3ccc(CN)nc3n2Cc2cc(NS(=O)(=O)CC3CC3)cc3ccccc23)CC1` [Compound 2.28], for which the negative logarithm of the Ki (pKi) was 6.30 to 7.00.

As to `Cn1ccnc1CCOC(=O)c1cc2ccc(CN)nc2n1Cc1cc(NS(=O)(=O)Cc2ccsc2)cc2ccccc12` [Compound 2.29], the negative logarithm of the Ki (pKi) was not below 7.00.

With `C=Cc1c(N)cc(Br)cc1Cn1c(C(=O)OCC2CCN(C)CC2)cc2ccc(CN)nc21` [Compound 2.30], the pKi was less than 5.52.

Take `CB1C=Cc2c(Cn3c(C(=O)OCC4CCN(C)CC4)cc4ccc(CN)nc43)cc(Br)cc2N1` [Compound 2.31]: the negative-log Ki (pKi) is 5.52 to 6.30.
